Test results from ChEMBL document CHEMBL2311262, “Structure activity relationship studies of tricyclic bispyran sulfone γ-secretase inhibitors” (Bioorg Med Chem Lett, 2013).
One block for each compound: values may come before it.

Legend:
[1] = molecular target: Gamma-secretase; test: Inhibition of gamma secretase-mediated amyloid beta40 production in HEK293 cells transfected with human APPSOW and APPLON after 5 hrs by sandwich immunoassay; format: cell-based
[2] = molecular target: Gamma-secretase; test: Inhibition of gamma secretase-mediated amyloid beta42 production in HEK293 cells transfected with human APPSOW and APPLON after 5 hrs by sandwich immunoassay; format: cell-based
[3] = tested on: Mus musculus; test: Inhibition of gamma secretase in B6C3F1 mouse assessed as […] in plasma amyloid beta40 production at 10 mg/kg, po measured at 3 hrs; format: functional
[4] = Ratio of drug level in brain to plasma in rat at 6 hrs; format: ADME; conditions: read-out: BPR
[5] = molecular target: Gamma-secretase; test: Inhibition of gamma secretase-mediated amyloid beta40 production in HEK293 cell membranes transfected with human APPSOW and APPLON mutant after 5 hrs by sandwich immunoassay; format: cell-based
[6] = Volume of distribution at steady state in rat at 5 mg/kg, iv; format: ADME, organism-based; parameters: dose 5 mg/kg, route intravenous; conditions: in vivo, read-out: Vdss
[7] = tested on: Mus musculus; test: Inhibition of gamma secretase in po dosed B6C3F1 mouse assessed as lowering of cortex amyloid beta40 production measured at 3 hrs; format: functional
[8] = AUC (0 to infinity) in monkey at 10 mg/kg, po; format: ADME, organism-based, Macaca mulatta; parameters: time infinity, dose 10 mg/kg, route oral; conditions: rhesus monkey, plasma
[9] = Oral bioavailability in dog at 10 mg/kg; format: ADME, organism-based, Canis lupus familiaris; conditions: in vivo
[10] = tested on: Rattus norvegicus; test: Inhibition of gamma secretase in po dosed CD rat assessed as lowering of plasma amyloid beta40 production measured at 3 hrs; format: functional
[11] = Cmax in monkey at 10 mg/kg, po; format: ADME, organism-based, Macaca mulatta; parameters: dose 10 mg/kg, route oral; conditions: rhesus monkey, in vivo
[12] = Clearance in dog at 2.5 mg/kg, iv; format: ADME, organism-based, Canis lupus familiaris; parameters: dose 2.5 mg/kg, route intravenous; conditions: in vivo
[13] = Half life in dog at 10 mg/kg, po; format: ADME, organism-based, Canis lupus familiaris; parameters: dose 10 mg/kg, route oral; conditions: in vivo
[14] = Clearance in monkey at 2.5 mg/kg, iv; format: ADME, organism-based, Macaca mulatta; parameters: dose 2.5 mg/kg, route intravenous; conditions: rhesus monkey, in vivo
[15] = Oral bioavailability in monkey at 10 mg/kg; format: ADME, organism-based, Macaca mulatta; conditions: rhesus monkey, in vivo
[16] = molecular target: hERG (KCNH2) (Homo sapiens, UniProt Q12809); test: Inhibition of human ERG at 10 uM by voltage clamp assay
[17] = Half life in rat at 10 mg/kg, po; format: ADME, organism-based; parameters: dose 10 mg/kg, route oral; conditions: in vivo
[18] = Tmax in dog at 10 mg/kg, po; format: ADME, organism-based, Canis lupus familiaris; parameters: dose 10 mg/kg, route oral; conditions: in vivo
[19] = Cmax in dog at 10 mg/kg, po; format: ADME, organism-based, Canis lupus familiaris; parameters: dose 10 mg/kg, route oral; conditions: in vivo
[20] = Tmax in monkey at 10 mg/kg, po; format: ADME, organism-based, Macaca mulatta; parameters: dose 10 mg/kg, route oral; conditions: rhesus monkey, in vivo
[21] = Clearance in rat at 5 mg/kg, iv; format: ADME, organism-based; parameters: dose 5 mg/kg, route intravenous; conditions: in vivo
[22] = Tmax in rat at 10 mg/kg, po; format: ADME, organism-based; parameters: dose 10 mg/kg, route oral; conditions: in vivo
[23] = AUC (0 to infinity) in dog at 10 mg/kg, po; format: ADME, organism-based, Canis lupus familiaris; parameters: time infinity, dose 10 mg/kg, route oral; conditions: plasma
[24] = tested on: Rattus norvegicus; test: Inhibition of gamma secretase in po dosed CD rat assessed as lowering of CSF amyloid beta40 production measured at 3 hrs; format: functional
[25] = Volume of distribution at steady state in monkey at 2.5 mg/kg, iv; format: ADME, organism-based, Macaca mulatta; parameters: dose 2.5 mg/kg, route intravenous; conditions: rhesus monkey, in vivo, read-out: Vdss
[26] = tested on: Mus musculus; test: Inhibition of gamma secretase in po dosed B6C3F1 mouse assessed as lowering of plasma amyloid beta40 production measured at 3 hrs; format: functional
[27] = molecular target: Gamma-secretase; test: Inhibition of gamma secretase-mediated notch cleavage in HEK293 cells expressing human notch protein with truncated extracellular EGF repeat domain by sandwich immunoassay; format: cell-based
[28] = Half life in monkey at 10 mg/kg, po; format: ADME, organism-based, Macaca mulatta; parameters: dose 10 mg/kg, route oral; conditions: rhesus monkey, in vivo
[29] = Cmax in rat at 10 mg/kg, po; format: ADME, organism-based; parameters: dose 10 mg/kg, route oral; conditions: in vivo
[30] = Inhibition of CYP450 (unknown origin); format: ADME, Homo sapiens
[31] = AUC (0 to infinity) in rat at 10 mg/kg, po; format: ADME, organism-based; parameters: time infinity, dose 10 mg/kg, route oral; conditions: plasma
[32] = tested on: Rattus norvegicus; test: Inhibition of gamma secretase in po dosed CD rat assessed as lowering of cortex amyloid beta40 production measured at 3 hrs; format: functional
[33] = Volume of distribution at steady state in dog at 2.5 mg/kg, iv; format: ADME, organism-based, Canis lupus familiaris; parameters: dose 2.5 mg/kg, route intravenous; conditions: in vivo, read-out: Vdss
[34] = Oral bioavailability in rat at 10 mg/kg; format: ADME, organism-based; conditions: in vivo
[35] = organism: Homo sapiens; test: Selectivity ratio of inhibition of PS2 (unknown origin) to inhibition of PS1 (unknown origin)

Chain of hERG (KCNH2) (Q12809 whole entry): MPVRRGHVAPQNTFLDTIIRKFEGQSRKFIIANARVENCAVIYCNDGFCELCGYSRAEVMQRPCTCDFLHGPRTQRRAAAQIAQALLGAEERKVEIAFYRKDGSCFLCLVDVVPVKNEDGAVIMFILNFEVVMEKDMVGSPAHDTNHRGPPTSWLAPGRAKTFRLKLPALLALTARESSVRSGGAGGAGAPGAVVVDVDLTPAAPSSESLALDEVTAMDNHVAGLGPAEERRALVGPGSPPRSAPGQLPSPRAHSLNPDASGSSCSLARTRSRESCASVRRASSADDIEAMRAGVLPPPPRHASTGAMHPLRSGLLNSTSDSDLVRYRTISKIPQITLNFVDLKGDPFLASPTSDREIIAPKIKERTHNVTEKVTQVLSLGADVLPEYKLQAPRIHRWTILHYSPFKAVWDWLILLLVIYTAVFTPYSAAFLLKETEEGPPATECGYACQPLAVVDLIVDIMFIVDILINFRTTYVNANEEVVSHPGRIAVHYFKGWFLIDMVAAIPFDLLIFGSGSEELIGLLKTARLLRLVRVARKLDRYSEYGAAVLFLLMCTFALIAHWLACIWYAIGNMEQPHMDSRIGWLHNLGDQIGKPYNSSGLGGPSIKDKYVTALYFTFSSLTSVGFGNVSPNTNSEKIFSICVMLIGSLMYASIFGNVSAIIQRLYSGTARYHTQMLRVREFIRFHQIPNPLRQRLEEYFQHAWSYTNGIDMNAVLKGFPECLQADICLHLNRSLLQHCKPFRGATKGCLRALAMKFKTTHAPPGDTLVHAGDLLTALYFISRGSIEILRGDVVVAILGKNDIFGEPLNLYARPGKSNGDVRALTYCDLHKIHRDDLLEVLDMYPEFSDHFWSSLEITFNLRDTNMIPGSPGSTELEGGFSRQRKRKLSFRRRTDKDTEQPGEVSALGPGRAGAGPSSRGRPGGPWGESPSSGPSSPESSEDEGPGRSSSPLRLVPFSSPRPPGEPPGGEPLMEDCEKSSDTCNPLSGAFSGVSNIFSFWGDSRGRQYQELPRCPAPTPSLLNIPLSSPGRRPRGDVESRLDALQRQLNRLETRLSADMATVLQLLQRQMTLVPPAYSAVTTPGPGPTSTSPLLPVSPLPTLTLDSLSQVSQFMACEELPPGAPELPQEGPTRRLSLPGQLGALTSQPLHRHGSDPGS

IC50 [1]: 38 nM
IC50 [2]: 22 nM
Kp at 6 h [4]: 0.1
IC50 [5]: 2.7 nM
Compound: O=C(O)CS(=O)(=O)CC[C@@H]1OCC[C@@]2(S(=O)(=O)c3ccc(Cl)cc3)c3c(F)ccc(F)c3OC[C@@H]12
inhibition in vivo at 10 mg/kg [3]: 47%

IC50 [5]: 360 nM
Compound: COc1ccc(S(=O)(=O)[C@@]23CCO[C@@H](CCS(C)(=O)=O)[C@@H]2COc2c(F)ccc(F)c23)cc1

IC50 [1]: 8 nM
IC50 [2]: 3 nM
IC50 [5]: 5.5 nM
Compound: CC(C)S(=O)(=O)CC[C@@H]1OCC[C@@]2(S(=O)(=O)c3ccc(Cl)cc3)c3c(F)ccc(F)c3OC[C@@H]12

IC50 [5]: 5100 nM
Compound: CS(=O)(=O)CC[C@@H]1OCC[C@@]2(S(=O)(=O)c3ccc(OCC(F)(F)F)cc3)c3c(F)ccc(F)c3OC[C@@H]12

IC50 [1]: 400 nM
IC50 [2]: 120 nM
IC50 [5]: 580 nM
Compound: CS(=O)(=O)CC[C@@H]1OCC[C@@]2(S(=O)(=O)c3ccc(C#N)c(C#N)c3)c3c(F)ccc(F)c3OC[C@@H]12

IC50 [1]: 2.5 nM
IC50 [2]: 0.6 nM
IC50 [5]: 2.9 nM
Compound: CS(=O)(=O)CC[C@@H]1OCC[C@@]2(S(=O)(=O)c3ccc(Br)cc3)c3c(F)ccc(F)c3OC[C@@H]12

IC50 [1]: 5 nM
IC50 [2]: 2 nM
IC50 [5]: 3 nM
Compound: CCS(=O)(=O)CC[C@@H]1OCC[C@@]2(S(=O)(=O)c3ccc(Cl)cc3)c3c(F)ccc(F)c3OC[C@@H]12

IC50 [5]: 4.5 nM
Compound: O=S(=O)(CCCO)CC[C@@H]1OCC[C@@]2(S(=O)(=O)c3ccc(Cl)cc3)c3c(F)ccc(F)c3OC[C@@H]12

IC50 [1]: 11 nM
IC50 [2]: 5 nM
IC50 [5]: 6.8 nM
Compound: CCCS(=O)(=O)CC[C@@H]1OCC[C@@]2(S(=O)(=O)c3ccc(Cl)cc3)c3c(F)ccc(F)c3OC[C@@H]12

IC50 [1]: 1.5 nM
IC50 [2]: 1.8 nM
IC50 [5]: 1.4 nM
Compound: O=S(=O)(CC[C@@H]1OCC[C@@]2(S(=O)(=O)c3ccc(Cl)cc3)c3c(F)ccc(F)c3OC[C@@H]12)c1ncc[nH]1

IC50 [1]: 8.9 nM
IC50 [2]: 4.7 nM
IC50 [5]: 2.1 nM
Compound: O=S(=O)(CC[C@@H]1OCC[C@@]2(S(=O)(=O)c3ccc(Cl)cc3)c3c(F)ccc(F)c3OC[C@@H]12)c1ncn[nH]1
inhibition in vivo at 10 mg/kg [3]: 30%

IC50 [1]: 14 nM
IC50 [2]: 1.4 nM
IC50 [5]: 31 nM
Compound: CS(=O)(=O)CC[C@@H]1OCC[C@@]2(S(=O)(=O)c3ccc(F)c(F)c3)c3c(F)ccc(F)c3OC[C@@H]12

IC50 [1]: 13 nM
IC50 [2]: 4.4 nM
IC50 [5]: 7.4 nM
Compound: O=S(=O)(CC[C@@H]1OCC[C@@]2(S(=O)(=O)c3ccc(Cl)cc3)c3c(F)ccc(F)c3OC[C@@H]12)C(F)(F)F

IC50 [5]: 2.1 nM
Compound: O=S(=O)(CC[C@@H]1OCC[C@@]2(S(=O)(=O)c3ccc(Cl)cc3)c3c(F)ccc(F)c3OC[C@@H]12)C1CC1

Vd [6]: 8.9 L/kg
AUC(0-inf) [8]: 18 µM·h
bioavailability [9]: 100%
IC50 [1]: 11 nM
Cmax [11]: 810 nM
clearance [12]: 4.6 mL/min/kg
half-life [13]: 1020 min
clearance [14]: 6.5 mL/min/kg
bioavailability [15]: 70%
IC50 [2]: 3.5 nM
half-life [17]: 216 min
Tmax [18]: 2.3 h
Cmax [19]: 1500 nM
Tmax [20]: 5.3 h
clearance [21]: 40 mL/min/kg
Tmax [22]: 2 h
AUC(0-inf) [23]: 46 µM·h
IC50 [5]: 15 nM
Vd [25]: 6.6 L/kg
IC50 [27]: 31 nM
half-life [28]: 1020 min
Cmax [29]: 680 nM
IC50 [30]: > 10 µM
AUC(0-inf) [31]: 3.5 µM·h
Vd [33]: 6.1 L/kg
bioavailability [34]: 44%
Compound: CS(=O)(=O)CC[C@@H]1OCC[C@@]2(S(=O)(=O)c3ccc(C(F)(F)F)cc3)c3c(F)ccc(F)c3OC[C@@H]12
ED50 [7]: 8 mg/kg
ED50 [10]: 1.9 mg/kg
inhibition at 10 µM [16]: 31%
ED50 [24]: 7.4 mg/kg
ED50 [26]: 7.7 mg/kg
ED50 [32]: 2.8 mg/kg

IC50 [5]: 250 nM
Compound: CS(=O)(=O)CC[C@@H]1OCC[C@@]2(S(=O)(=O)c3cc(F)cc(F)c3)c3c(F)ccc(F)c3OC[C@@H]12

IC50 [1]: 25 nM
IC50 [2]: 8.9 nM
IC50 [5]: 66 nM
Compound: CS(=O)(=O)CC[C@@H]1OCC[C@@]2(S(=O)(=O)c3ccc(C#N)cc3)c3c(F)ccc(F)c3OC[C@@H]12

Selectivity ratio [35]: 19
IC50 [1]: 4 nM
IC50 [2]: 1 nM
IC50 [5]: 1.3 nM
Compound: CS(=O)(=O)CC[C@@H]1OCC[C@@]2(S(=O)(=O)c3ccc(Cl)cc3)c3c(F)ccc(F)c3OC[C@@H]12

IC50 [1]: 22 nM
IC50 [2]: 6.4 nM
IC50 [5]: 7.3 nM
Compound: O=S(=O)(CC[C@@H]1OCC[C@@]2(S(=O)(=O)c3ccc(Cl)cc3)c3c(F)ccc(F)c3OC[C@@H]12)CC(F)(F)F

IC50 [1]: 1.2 nM
IC50 [2]: 0.9 nM
Kp at 6 h [4]: 0.1
IC50 [5]: 1 nM
Compound: O=S(=O)(CCO)CC[C@@H]1OCC[C@@]2(S(=O)(=O)c3ccc(Cl)cc3)c3c(F)ccc(F)c3OC[C@@H]12

IC50 [1]: 13 nM
IC50 [2]: 4.7 nM
IC50 [5]: 4.3 nM
Compound: O=S(=O)(CC[C@@H]1OCC[C@@]2(S(=O)(=O)c3ccc(Cl)cc3)c3c(F)ccc(F)c3OC[C@@H]12)c1cnn[nH]1
